Laboratory results from patent US12564582B2 (Prilenia Neurotherapeutics Ltd., priority 2016, dated 2026).
Where two headings read alike, the source gives them in different places.

How the values were obtained:
[1] = test system: patients with Huntington's disease; settings: for Δ to placebo, change from baseline in Q-Motor: Tap-Speed-Inter-Onset-interval-MN-Hand: Week 52
Text: The patient places their hand on a hand rest with their index finger positioned above a force-transducer. Recordings start after practice runs. The patient is instructed to finger tap as fast as possible between 2 auditory cues. The beginning of a tap is defined as a rise of the force by 0.05 N above maximal baseline level. The tap ends when it drops to 0.05 N before the maximal baseline level is reached again. The duration and variability of tap durations (TD), inter onset intervals (IOI), inter peak intervals (IPI), and inter tap intervals (ITI) are the exploratory outcome measures for speeded tapping. In addition, variability of peak tapping forces (TF) is calculated as coefficient of variation, and the tapping frequency (Freq), i.e., the number of taps between the onsets of the first and the last tap divided by the time in between, is determined. Five trials of 10 seconds duration are performed with each hand.

[2] = test system: patients with Huntington's disease
Procedure: These variables were analyzed in the same way as the primary efficacy endpoint except that the variable evaluation at baseline were included in the model instead of baseline UHDRS-TMS.

rat striatum = settings: transcriptomic analysis (Geva 2016); cited from earlier work
L-DOPA-induced dystonia = test system: L-DOPA-induced dystonia
Text: Data are median (FIG. 19A) with individual values (FIG. 19BB). N=8 for all treatment groups. */**/*** represents P<0.05, P<0.01 or P<0.001 cf. vehicle-treatment. 2-way RM ANOVA (FIG. 19A) with Holm-Sidak's test or Friedman test with Dunn's test (FIG. 19B).

[3] = 45 mg bid, Week 26, Stage 1 BL TFC 11-13
[4] = 45 mg bid, Week 52, Stage 1 BL TFC 11-13
[5] = 45 mg bid, Week 52, all pridopidine treated patients
[6] = 67.5 mg bid, Week 26, Stage 1 BL TFC 11-13
[7] = 67.5 mg bid, Week 52, Stage 1 BL TFC 11-13
[8] = 67.5 mg bid, Week 52, all pridopidine treated patients
[9] = 90 mg bid, Week 26, Stage 1 BL TFC 11-13
[10] = 90 mg bid, Week 52, Stage 1 BL TFC 11-13
[11] = 90 mg bid, Week 52, all pridopidine treated patients
[12] = 112.5 mg bid, Week 26, Stage 1 BL TFC 11-13
[13] = 112.5 mg bid, Week 52, Stage 1 BL TFC 11-13
[14] = 112.5 mg bid, Week 52, all pridopidine treated patients

With `CCCN1CCC(c2cccc(S(C)(=O)=O)c2)CC1` [pridopidine, 4-[3-(methylsulfonyl)phenyl]-1-propyl-piperidine] the “Δ to placebo, change from baseline in Q-Motor: Tap-Speed-Inter-Onset-interval-MN-Hand” value ([1]; 45 mg bid, FAS) was -0.0402 s, the “Δ to placebo, change from baseline in Q-Motor: Tap-Speed-Inter-Onset-interval-MN-Hand” value ([1]; 45 mg bid, HD1 and HD2 patients) was -0.0351 s and the “Δ to placebo, change from baseline in Q-Motor: Tap-Speed-Inter-Onset-interval-MN-Hand” value ([1]; 67.5 mg bid, FAS) was 0.0152 s. The “Δ to placebo, change from baseline in Q-Motor: Tap-Speed-Inter-Onset-interval-MN-Hand” value ([1]; 67.5 mg bid, HD1 and HD2 patients) was -0.0464 s, the “Q-Motor Tap Speed Inter Onset interval (IOI)” value ([1]; 90 mg bid) was “consistent and significant improvement from baseline” and the “Q-Motor Tap-Speed-Frequency” value ([1]; 90 mg bid) was “consistent improvement from baseline”. For the same compound, the “Δ to placebo, change from baseline in Q-Motor: Tap-Speed-Inter-Onset-interval-MN-Hand” value ([1]; 90 mg bid, FAS) was -0.0064 s, the “Δ to placebo, change from baseline in Q-Motor: Tap-Speed-Inter-Onset-interval-MN-Hand” value ([1]; 90 mg bid, HD1 and HD2 patients) was -0.0291 s and the “Δ to placebo, change from baseline in Q-Motor: Tap-Speed-Inter-Onset-interval-MN-Hand” value ([1]; 112.5 mg bid, FAS) was -0.017 s. For the same compound, the “Δ to placebo, change from baseline in Q-Motor: Tap-Speed-Inter-Onset-interval-MN-Hand” value ([1]; 112.5 mg bid, HD1 and HD2 patients) was -0.022 s, the “Δ to placebo, change from baseline in UHDRS TMS Excluding Dystonia” value ([2]; 45 mg bid, Week 26, ALL) was 1.39 and the “Δ to placebo, change from baseline in UHDRS TMS Involuntary Movements” value ([2]; 45 mg bid, Week 26, ALL) was 0.89. For the same compound, the “Δ to placebo, change from baseline in UHDRS TMS Excluding Dystonia” value [2, 3] was −3.6, the “Δ to placebo, change from baseline in UHDRS TMS Involuntary Movements” value [2, 3] was −2.49 and the “Δ to placebo, change from baseline in UHDRS TMS Excluding Chorea” value [2, 4] was −4.09. For the same compound, the “Δ to placebo, change from baseline in UHDRS TMS Involuntary Movements” value [2, 4] was −2.73, the “Δ to placebo, change from baseline in UHDRS TMS Excluding Chorea” value [2, 5] was 0.05 and the “Δ to placebo, change from baseline in UHDRS TMS Involuntary Movements” value [2, 5] was 0.02. For the same compound, the “Δ to placebo, change from baseline in UHDRS TMS Excluding Dystonia” value ([2]; 67.5 mg bid, Week 26, ALL) was 1.97, the “Δ to placebo, change from baseline in UHDRS TMS Involuntary Movements” value ([2]; 67.5 mg bid, Week 26, ALL) was 0.48 and the “Δ to placebo, change from baseline in UHDRS TMS Excluding Dystonia” value [2, 6] was −2.2. For the same compound, the “Δ to placebo, change from baseline in UHDRS TMS Involuntary Movements” value [2, 6] was −3.07, the “Δ to placebo, change from baseline in UHDRS TMS Excluding Chorea” value [2, 7] was −0.18 and the “Δ to placebo, change from baseline in UHDRS TMS Involuntary Movements” value [2, 7] was −0.2. For the same compound, the “Δ to placebo, change from baseline in UHDRS TMS Excluding Chorea” value [2, 8] was 1.31, the “Δ to placebo, change from baseline in UHDRS TMS Involuntary Movements” value [2, 8] was 0.8 and the “Δ to placebo, change from baseline in UHDRS TMS Excluding Dystonia” value ([2]; 90 mg bid, Week 26, ALL) was 1.2. For the same compound, the “Δ to placebo, change from baseline in UHDRS TMS Involuntary Movements” value ([2]; 90 mg bid, Week 26, ALL) was 0.01, the “Δ to placebo, change from baseline in UHDRS TMS Excluding Dystonia” value [2, 9] was −4.35 and the “Δ to placebo, change from baseline in UHDRS TMS Involuntary Movements” value [2, 9] was −4. For the same compound, the “Δ to placebo, change from baseline in UHDRS TMS Excluding Chorea” value [2, 10] was −4.92, the “Δ to placebo, change from baseline in UHDRS TMS Involuntary Movements” value [2, 10] was −3.8 and the “Δ to placebo, change from baseline in UHDRS TMS Excluding Chorea” value [2, 11] was 1.67. The “Δ to placebo, change from baseline in UHDRS TMS Involuntary Movements” value [2, 11] was −0.26, the “Δ to placebo, change from baseline in UHDRS TMS Excluding Dystonia” value ([2]; 112.5 mg bid, Week 26, ALL) was 2.4 and the “Δ to placebo, change from baseline in UHDRS TMS Involuntary Movements” value ([2]; 112.5 mg bid, Week 26, ALL) was 0.76. The “Δ to placebo, change from baseline in UHDRS TMS Excluding Dystonia” value [2, 12] was −4.31, the “Δ to placebo, change from baseline in UHDRS TMS Involuntary Movements” value [2, 12] was −1.64 and the “Δ to placebo, change from baseline in UHDRS TMS Excluding Chorea” value [2, 13] was −1.59. For the same compound, the “Δ to placebo, change from baseline in UHDRS TMS Involuntary Movements” value [2, 13] was 0.8, the “Δ to placebo, change from baseline in UHDRS TMS Excluding Chorea” value [2, 14] was 1.94 and the “Δ to placebo, change from baseline in UHDRS TMS Involuntary Movements” value [2, 14] was 0.57. The “expression of the BDNF, dopamine receptor 1 (D1R), glucocorticoid receptor (GR) and Akt/PI3K pathways” value (rat striatum) was “activates expression”, the “levels of dystonia, significance cf. LDh-vehicle” value (L-DOPA-induced dystonia; 15 mg/kg, 1 h epoch 1) was “ns” and the “levels of dystonia, significance cf. LDh-vehicle” value (L-DOPA-induced dystonia; 15 mg/kg, 1 h epoch 2) was “ns”. For the same compound, the “levels of dystonia, significance cf. LDh-vehicle” value (L-DOPA-induced dystonia; 15 mg/kg, 1 h epoch 3) was “ns”, the “levels of dystonia, significance cf. LDh-vehicle” value (L-DOPA-induced dystonia; 15 mg/kg, 1 h epoch 4) was “ns” and the “levels of dystonia, significance cf. LDh-vehicle” value (L-DOPA-induced dystonia; 15 mg/kg, 1 h epoch 5) was “ns”. For the same compound, the “levels of dystonia, significance cf. LDh-vehicle” value (L-DOPA-induced dystonia; 15 mg/kg, 1 h epoch 6) was “ns”, the “levels of dystonia, significance cf. LDh-vehicle” value (L-DOPA-induced dystonia; 20 mg/kg, 1 h epoch 1) was “* (P<0.05)” and the “levels of dystonia, significance cf. LDh-vehicle” value (L-DOPA-induced dystonia; 20 mg/kg, 1 h epoch 2) was “ns”. The “levels of dystonia, significance cf. LDh-vehicle” value (L-DOPA-induced dystonia; 20 mg/kg, 1 h epoch 3) was “ns”.
